Experimental data taken from US20080031822A1, “Methods of modeling migraine pain and identifying candidate compounds for the treatment of migraine” (priority 2006, published 2008).

Tests used:
[1] = test system: Male Sprague Dawley rats; experiment: Dural inflammation migraine model, tactile hyperesthesia of the hindpaw (50% paw withdrawal threshold, von Frey filaments); type: in vivo, rat
[2] = test system: Male Sprague Dawley rats; experiment: Dural inflammation migraine model, facial tactile hyperesthesia (50% facial response threshold, von Frey filaments); type: in vivo, rat

Question: What does the source list for `CNS(=O)(=O)Cc1ccc2[nH]cc(CCN(C)C)c2c1` [sumatriptan]?
Answer: 50% paw withdrawal threshold versus control rats with dural IM cocktail only ([1]; 0.6 mg/kg s.c. ten minutes prior to IM cocktail (FIG. 8)): increase in paw withdrawal threshold; tactile hyperesthesia of the hindpaw induced by dural inflammation ([1]; sumatriptan succinate subcutaneously 1 mg/kg five minutes prior to dural IM cocktail, results two hours after dural treatment (FIG. 10)): attenuates tactile hyperesthesia of the hindpaw; 50% facial response threshold versus control rats with dural IM cocktail only ([2]; systemic administration thirty minutes after IM cocktail (FIGS. 6A-6B)): increase in facial response threshold

Question: For `CCCCN1CCCCC1C(=O)Nc1c(C)cccc1C` (stereo not shown) [bupivacaine], which “50% paw withdrawal threshold versus control rats with dural IM cocktail only” value ([1]; administered in the RVM thirty minutes after IM cocktail (FIG. 9A)) is on record?
Answer: increase in paw withdrawal threshold

Question: And the “50% paw withdrawal threshold versus control rats with dural IM cocktail only” value ([1]; administered in the RVM two hours after IM cocktail (FIG. 9B))?
Answer: significant increase in test animal paw withdrawal threshold

Question: And the “50% facial response threshold versus control rats with dural IM cocktail only” value ([2]; administered in the RVM thirty minutes after IM cocktail (FIGS. 7A-7B))?
Answer: increase in facial response threshold

Question: With `N[C@@H](CCC(=O)N[C@@H](CSN=O)C(=O)NCC(=O)O)C(=O)O` [SNOG, s-nitrosylglutathione] as the molecule, how does the “tactile hyperesthesia of the hindpaw after administration to the dura” value ([1]; administered to the dura, results two hours after treatment (FIG. 4)) read?
Answer: produced a tactile hyperesthesia effect similar to that induced by administration of the IM cocktail
